# Assay results reported in ChEMBL document CHEMBL2074101, “Cloning and characterization of a rat H+/peptide cotransporter mediating absorption of beta-lactam antibiotics in the intestine and kidney” (J Pharmacol Exp Ther, 1995).
# T1: Solute carrier family 15 member 1 (Rattus norvegicus) (UniProt P51574)
# T1 sequence (whole entry): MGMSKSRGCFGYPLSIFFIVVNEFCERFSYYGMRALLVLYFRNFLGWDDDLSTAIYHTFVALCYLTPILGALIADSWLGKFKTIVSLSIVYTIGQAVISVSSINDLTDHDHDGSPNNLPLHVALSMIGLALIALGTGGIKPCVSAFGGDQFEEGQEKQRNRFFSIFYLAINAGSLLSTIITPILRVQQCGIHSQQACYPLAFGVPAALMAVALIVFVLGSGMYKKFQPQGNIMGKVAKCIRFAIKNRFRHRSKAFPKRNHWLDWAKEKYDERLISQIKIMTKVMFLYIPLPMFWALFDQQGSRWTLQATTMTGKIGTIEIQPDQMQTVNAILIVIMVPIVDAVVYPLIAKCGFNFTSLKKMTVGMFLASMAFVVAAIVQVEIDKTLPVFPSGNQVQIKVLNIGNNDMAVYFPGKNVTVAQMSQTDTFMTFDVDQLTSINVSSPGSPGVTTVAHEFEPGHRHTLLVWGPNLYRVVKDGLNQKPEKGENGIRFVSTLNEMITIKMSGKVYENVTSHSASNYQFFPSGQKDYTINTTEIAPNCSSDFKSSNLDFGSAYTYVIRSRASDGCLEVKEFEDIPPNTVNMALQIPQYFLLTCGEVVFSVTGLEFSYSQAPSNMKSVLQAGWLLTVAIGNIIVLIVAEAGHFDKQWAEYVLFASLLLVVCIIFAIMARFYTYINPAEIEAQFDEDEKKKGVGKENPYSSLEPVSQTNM
# B1: Solute carrier family 15 member 1 (Rattus norvegicus), P51574 (protein)
# chain: T1 sequence (whole entry)
# Experiments:
# Assay type in all cases: functional, cell-based
# Conditions in all cases: Oocyte
# [1] = biological target: T1, Solute carrier family 15 member 1 (Rattus norvegicus); assay: TP_TRANSPORTER: inhibition of Cephradine uptake (Cephradine: 3000 uM, Ceftibuten: 10000 uM) in Xenopus laevis oocytes
# [2] = biological target: T1, Solute carrier family 15 member 1 (Rattus norvegicus); assay: TP_TRANSPORTER: inhibition of Ceftibuten uptake (Ceftibuten: 1000 uM, Cephradine: 10000 uM) in Xenopus laevis oocytes
# [3] = biological target: T1, Solute carrier family 15 member 1 (Rattus norvegicus); assay: TP_TRANSPORTER: inhibition of Ceftibuten uptake (Ceftibuten: 1000 uM, Gly-Leu: 10000 uM) in Xenopus laevis oocytes
# [4] = biological target: T1, Solute carrier family 15 member 1 (Rattus norvegicus); assay: TP_TRANSPORTER: inhibition of Cephradine uptake (Cephradine: 3000 uM, Gly-Leu: 10000 uM) in Xenopus laevis oocytes
# [5] = biological target: T1, Solute carrier family 15 member 1 (Rattus norvegicus); assay: TP_TRANSPORTER: inhibition of Cephradine uptake (Cephradine: 3000 uM, Carnosine: 10000 uM) in Xenopus laevis oocytes
# [6] = biological target: T1, Solute carrier family 15 member 1 (Rattus norvegicus); assay: TP_TRANSPORTER: inhibition of Ceftibuten uptake (Ceftibuten: 1000 uM, Carnosine: 10000 uM) in Xenopus laevis oocytes
# [7] = biological target: T1, Solute carrier family 15 member 1 (Rattus norvegicus); assay: TP_TRANSPORTER: inhibition of Ceftibuten uptake (Ceftibuten: 1000 uM, Bestatin: 10000 uM) in Xenopus laevis oocytes
# [8] = biological target: T1, Solute carrier family 15 member 1 (Rattus norvegicus); assay: TP_TRANSPORTER: inhibition of Cephradine uptake (Cephradine: 3000 uM, Bestatin: 10000 uM) in Xenopus laevis oocytes
# [9] = substrate: CC1=C(C(=O)O)N2C(=O)[C@@H](NC(=O)[C@H](N)C3=CCC=CC3)[C@H]2SC1; assay: (§1) TP_TRANSPORTER: uptake in Xenopus laevis oocytes
# [10] = substrate: Nc1nc(/C(=C/CC(=O)O)C(=O)N[C@@H]2C(=O)N3C(C(=O)O)=CCS[C@H]23)cs1; assay: as §1
molecule,measurement,setting,value
Nc1nc(/C(=C/CC(=O)O)C(=O)N[C@@H]2C(=O)N3C(C(=O)O)=CCS[C@H]23)cs1,Activity,[1],inhibitor [+]
CC1=C(C(=O)O)N2C(=O)[C@@H](NC(=O)[C@H](N)C3=CCC=CC3)[C@H]2SC1,Activity,[2],is not an inhibitor [-]
CC(C)C[C@H](NC(=O)CN)C(=O)O,Activity,[3],inhibitor [+]
same,Activity,[4],inhibitor [+]
NCCC(=O)N[C@@H](Cc1c[nH]cn1)C(=O)O,Activity,[5],inhibitor [+]
same,Activity,[6],inhibitor [+]
CC(C)C[C@H](NC(=O)[C@@H](O)[C@H](N)Cc1ccccc1)C(=O)O,Activity,[7],inhibitor [+]
same,Activity,[8],inhibitor [+]
B1,Km,[9],12.4 mM
same,Km,[10],0.9 mM
